Where two headings read alike, the source gives them in different places.
Tests used:
any gene target = conditions: lowest reported IC50 to any gene target, cited from earlier work
FGFR1 [1] = biological target: T1, FGFR1 (Homo sapiens, UniProt P11362); conditions: cited from earlier work
VEGFR2 = VEGFR2 (Homo sapiens, UniProt P35968); conditions: relative IC50: reported IC50 toward VEGFR2 divided by next lowest reported IC50 to any gene target
FGFR1 [2] = biological target: T1, FGFR1; conditions: relative IC50: reported IC50 toward FGFR1 divided by next lowest reported IC50 to any gene target
VEGFR2 and FGFR1 = experiment: Selection of compounds that selectively inhibit both VEGFR2 and FGFR1 (average relative IC50); type: biochemical; conditions: average of VEGFR2 and FGFR1 relative IC50
[3] = reported IC50 to FGFR1, read-out: FGFR1 IC50_μM
[4] = Table 2, list of selective inhibitors of FGFR1, read-out: FGFR1 IC50_μM: reported IC50 to FGFR1

T1 sequence (P11362 22-822, species assumed): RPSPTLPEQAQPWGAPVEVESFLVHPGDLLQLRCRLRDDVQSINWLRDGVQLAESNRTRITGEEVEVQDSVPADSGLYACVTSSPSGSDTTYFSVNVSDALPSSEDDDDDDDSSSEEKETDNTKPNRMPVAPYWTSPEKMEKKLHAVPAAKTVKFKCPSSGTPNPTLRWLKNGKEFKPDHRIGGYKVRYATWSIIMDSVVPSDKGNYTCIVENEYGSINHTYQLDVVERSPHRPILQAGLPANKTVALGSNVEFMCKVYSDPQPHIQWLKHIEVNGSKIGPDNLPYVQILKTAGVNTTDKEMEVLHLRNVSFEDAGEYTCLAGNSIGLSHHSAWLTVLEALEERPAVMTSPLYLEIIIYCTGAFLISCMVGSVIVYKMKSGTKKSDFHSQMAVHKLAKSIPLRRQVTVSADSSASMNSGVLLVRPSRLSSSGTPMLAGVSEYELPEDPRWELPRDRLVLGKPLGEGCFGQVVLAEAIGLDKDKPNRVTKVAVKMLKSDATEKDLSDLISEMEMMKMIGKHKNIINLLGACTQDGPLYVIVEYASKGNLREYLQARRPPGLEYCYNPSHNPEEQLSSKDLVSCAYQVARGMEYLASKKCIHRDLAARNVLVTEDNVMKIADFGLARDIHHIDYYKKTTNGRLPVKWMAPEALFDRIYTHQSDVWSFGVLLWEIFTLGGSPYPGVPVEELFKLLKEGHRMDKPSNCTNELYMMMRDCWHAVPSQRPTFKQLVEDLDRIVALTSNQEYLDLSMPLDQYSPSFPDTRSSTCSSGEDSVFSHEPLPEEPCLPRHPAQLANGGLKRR
VEGFR2, sequence (P35968 20-1356, species assumed): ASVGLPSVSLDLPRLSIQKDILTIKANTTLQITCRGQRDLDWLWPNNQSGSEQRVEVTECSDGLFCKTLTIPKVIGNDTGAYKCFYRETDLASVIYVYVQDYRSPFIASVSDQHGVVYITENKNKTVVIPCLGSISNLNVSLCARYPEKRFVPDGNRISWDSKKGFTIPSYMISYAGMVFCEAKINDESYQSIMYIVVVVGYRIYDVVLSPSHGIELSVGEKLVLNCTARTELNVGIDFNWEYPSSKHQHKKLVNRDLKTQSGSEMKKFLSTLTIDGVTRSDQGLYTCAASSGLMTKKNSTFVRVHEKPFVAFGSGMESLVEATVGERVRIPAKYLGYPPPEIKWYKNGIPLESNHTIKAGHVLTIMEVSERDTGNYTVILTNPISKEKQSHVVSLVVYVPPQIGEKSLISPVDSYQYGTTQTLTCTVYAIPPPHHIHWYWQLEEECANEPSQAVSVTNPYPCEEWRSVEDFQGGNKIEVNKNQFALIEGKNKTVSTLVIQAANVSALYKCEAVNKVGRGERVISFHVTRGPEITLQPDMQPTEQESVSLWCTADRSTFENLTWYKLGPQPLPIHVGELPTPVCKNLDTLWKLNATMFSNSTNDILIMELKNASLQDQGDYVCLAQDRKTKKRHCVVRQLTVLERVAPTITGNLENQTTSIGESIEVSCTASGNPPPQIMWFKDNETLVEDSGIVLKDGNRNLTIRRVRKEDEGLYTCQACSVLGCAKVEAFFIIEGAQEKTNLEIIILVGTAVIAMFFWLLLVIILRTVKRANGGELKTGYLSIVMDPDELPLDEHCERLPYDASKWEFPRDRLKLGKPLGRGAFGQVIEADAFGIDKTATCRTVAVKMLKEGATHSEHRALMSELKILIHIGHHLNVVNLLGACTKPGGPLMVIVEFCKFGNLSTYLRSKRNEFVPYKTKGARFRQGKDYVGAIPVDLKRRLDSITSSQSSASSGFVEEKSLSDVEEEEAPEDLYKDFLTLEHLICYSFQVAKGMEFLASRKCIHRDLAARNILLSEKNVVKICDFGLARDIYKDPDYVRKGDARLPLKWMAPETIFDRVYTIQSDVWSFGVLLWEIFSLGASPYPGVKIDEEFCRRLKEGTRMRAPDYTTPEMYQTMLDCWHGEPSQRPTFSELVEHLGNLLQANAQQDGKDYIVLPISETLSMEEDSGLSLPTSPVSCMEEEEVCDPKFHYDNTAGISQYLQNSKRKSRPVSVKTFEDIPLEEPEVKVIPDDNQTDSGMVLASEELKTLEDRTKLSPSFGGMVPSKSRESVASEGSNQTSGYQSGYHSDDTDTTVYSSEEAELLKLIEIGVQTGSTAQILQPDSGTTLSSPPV

SMILES | IC50 (any gene target; read-out: Min IC50_μM) | IC50 (FGFR1 [1]; [3]) | other results
CC(C)(C)NC(=O)Nc1nc2nc(N)ncc2cc1-c1c(Cl)cccc1Cl [compound 5328112] | 130 nM | 110 nM | –
CC(C)(C)NC(=O)Nc1nc2nc(N)ncc2cc1-c1ccccc1 [compound 5329111] | 3710 nM | 3700 nM | –
NS(=O)(=O)c1ccc2c(c1)/C(=C/c1[nH]c3c(c1CCC(=O)O)CCCC3)C(=O)N2 [compound 5329165, Indolin-2-one deriv. 9c, reference compound] | – | – | IC50 (any gene target; Table 2, read-out: Min IC50_μM): 600 nM; IC50 (any gene target; read-out: min IC50): 200 nM; VEGFR2, rIC50 (VEGFR2): 3.0; IC50 (FGFR1 [1]; [4]): 200 nM; FGFR1, rIC50 (FGFR1 [2]): 0.3; avg rIC50 (VEGFR2 and FGFR1): 1.7
CONC(=O)c1cc(Nc2ncnn3cc(-c4nnc(C)o4)c(C(C)C)c23)c(F)cc1F [compound 10478569, 2,4-Difluoro-5-[5-isopropyl-6-(5-methyl-[1,3,4]oxadiazol-2-yl)-pyrrolo[2,1-f][1,2,4]triazin-4-ylamino]-N-methoxy-benzamide, reference compound] | – | 6.5 nM | VEGFR2, rIC50 (VEGFR2): 1.2; FGFR1, rIC50 (FGFR1 [2]): 1.0; avg rIC50 (VEGFR2 and FGFR1): 1.1
Cc1cc(C)c(C)c(-c2cc3cnc(NCCCN4CCN(C)CC4)nc3nc2NC(=O)NC(C)(C)C)c1C [compound 10602350] | 140 nM | 140 nM | –
CONC(=O)c1cc(Nc2ncnn3cc(-c4nnco4)c(C(C)C)c23)c(F)cc1F [compound 11464544, 2,4-Difluoro-5-(5-isopropyl-6-[1,3,4]oxadiazol-2-yl-pyrrolo[2,1-f][1,2,4]triazin-4-ylamino)-N-methoxy-benzamide, reference compound] | 54 nM | 54 nM | IC50 (any gene target; read-out: min IC50): 54 nM; VEGFR2, rIC50 (VEGFR2): 1.4; FGFR1, rIC50 (FGFR1 [2]): 1.0; avg rIC50 (VEGFR2 and FGFR1): 1.2
CONC(=O)c1cc(Nc2ncnn3cc(-c4nnc(C(F)(F)F)o4)c(C(C)C)c23)c(F)cc1F [compound 11488852, 2,4-Difluoro-5-[5-isopropyl-6-(5-trifluoromethyl-[1,3,4]oxadiazol-2-yl)-pyrrolo[2,1-f][1,2,4]triazin-4-ylamino]-N-methoxy-benzamide, reference compound] | 33 nM | – | IC50 (any gene target; read-out: min IC50): 33 nM; VEGFR2, rIC50 (VEGFR2): 1.1; IC50 (FGFR1 [1]; read-out: FGFR1 IC50_μM, reported IC50 to FGFR1): 33 nM; FGFR1, rIC50 (FGFR1 [2]): 1.0; avg rIC50 (VEGFR2 and FGFR1): 1.0
COC(=O)C1=C(c2ccccc2)c2cc(C)ccc2C1=O.COC(=O)C1=C(c2ccccc2)c2ccc(C)cc2C1=O [compound 44330102] | 6400 nM | 6400 nM | –
COC(=O)C1=C(c2ccccc2)c2ccncc2C1=O [compound 44330158] | 6800 nM | 6800 nM | –
NC(=O)C1=C(c2ccc(Cl)cc2)c2ccccc2C1=O [compound 44330203] | 5400 nM | 5400 nM | –
C=CC(=O)Nc1ccc(CN(C(=O)Nc2c(Cl)c(OC)cc(OC)c2Cl)c2cc(Nc3ccc(N4CCN(C)CC4)cc3)ncn2)cc1 [compound 73707531] | 1 nM | 1 nM | –
COc1cc(CCc2cc(Nc3ncnc4cc(N5CCN6CCCCC6C5)ccc34)n[nH]2)cc(OC)c1 (centres unmarked) [compound 127047969] | 0.2 nM | 0.2 nM | –
Cc1oc2c(c1C(=O)N1CC[C@H](N)C1)C(=O)c1c(c(O)c3ccccc3c1O)C2=O [compound 137631210] | 5000 nM | 5000 nM | –
C=CC(=O)N1CC[C@H](n2cc(-c3cc4cc(C)cc(OC)c4s3)c3c(N)ncnc32)C1 [compound 138617501] | – | – | IC50 (any gene target; Table 2, read-out: Min IC50_μM): 0.8 nM; IC50 (FGFR1 [1]; [4]): 0.3 nM
O=c1[nH]c(=O)n(-c2ccc(Oc3ccccc3)cc2)c(=O)n1-c1ccccc1 [compound 139434105] | – | – | IC50 (any gene target; Table 2, read-out: Min IC50_μM): 1300 nM; IC50 (FGFR1 [1]; [4]): 890 nM

From patent US20240156825A1, “USE OF SELECTIVE VEGFR2 AND FGFR1 INHIBITORS” (Fountain Therapeutics Inc., priority 2022, published 2024)
